Measurements: article PMC7738871, “Covalent modification of Keap1 at Cys77 and Cys434 by pubescenoside a suppresses oxidative stress-induced NLRP3 inflammasome activation in myocardial ischemia-reperfusion injury” (Theranostics, 2021)

Columns and labels:
ROS in H9c2 cells = assay: Intracellular ROS (DCFH-DA), OGD/R H9c2; type: cell-based, rat
Method: The fluorescent probe DCFH-DA was used to measure intracellular ROS levels. RAW264.7 cells were treated with 100 μg/mL LPS plus ATP as mentioned above. H9c2 cells underwent OGD/R. After the appropriate treatment, the cells were incubated with DCFH-DA at a concentration of 10 μM for 30 min. The cells were washed with PBS three times. A fluorescence microscope and microplate reader were used to measure the level of DCFH-DA fluorescence at the excitation wavelength of 488 nm and the emission wavelength of 525 nm.

[1] = system: T1, interaction of Keap1 and Cul3; assay: Co-IP of Keap1 and Cul3 in 293T cells; type: cell-based, human
T1 construct: expressed in transfected cells; host or cells: 293T
Method: Alkylation of the BTB domain of Keap1 by covalent modifiers contributes to the disruption of the Keap1-Cul3 interactions, leading to Nrf2 activation. Next, we investigated the effect of PBA on the modulation of Nrf2 ubiquitination as Nrf2 stability is controlled by ubiquitin-mediated proteasomal degradation. First, 3X Flag-Keap1, Myc-Nrf2 and Ub plasmids were transfected into 293T cells and then, the cells were treated with 30 μM PBA for 20 h and 5 μM MG132 for another 4 h. Cell lysates were pulled down using anti-Myc beads, and immunopurified Nrf2 was examined for the occurrence of Ub by western blotting. […]
Figure 6 PBA suppresses Keap1-mediated ubiquitination of Nrf2 by disrupting the interaction between Cul3 and Keap1. […] The cell lysates were immunoprecipitated using anti-Myc beads, and the ubiquitination level was evaluated using the anti-Ub antibody. […] The cell lysates were immunoprecipitated with the anti-Flag antibody, and the level of Nrf2 was assessed using the anti-Nrf2 antibody. […] The cell lysates were immunoprecipitated with the anti-Flag antibody, and the level of Cul3 was measured using the anti-Cul3 antibody. #p < 0.05, ##p < 0.01, ###p < 0.001, the control vs DMSO; *p < 0.05,**p < 0.01, ***p < 0.001, PBA or tBHQ vs DMSO. […] Cell viability was measured by MTT assays. #p < 0.05, ###p < 0.001, the control vs OGD/R; **p < 0.01, ***p < 0.001, OGD/R+PBA vs OGD/R.

[2] = system: primary neonatal mouse cardiomyocytes; assay: MTT cytotoxicity, primary cardiomyocytes; type: cell-based; conditions: under 240 μM, 48 h
Method: The heart was removed from the neonatal C57BL/6 mice and cut into 1 mm^3 pieces in ice […] buffer. The tissues were digested with the mixture of 0.125% trypsin (Gibco, 15090-046) and 0.1% type II collagenase (Gibco, 17101-015) 6 min at 37 °C for three times until the tissues were completely digested. The cells were harvested and seeded in a dish. After 90 min of incubation, the cell culture medium was collected and centrifuged. The centrifuged cardiomyocytes were harvested, seeded on 0.1 % gelatin-coated culture plates with DMEM containing 10% FBS and […] Brdu, and incubated in a 37°C incubator.
Cell viability was determined by MTT assays. PBA was prepared to a stock solution dissolved in dimethyl sulfoxide (DMSO). RAW264.7, H9c2 cells, primary mouse cardiomyocytes were treated with different doses of PBA, and DMSO only as control for 48 h for the toxicity. In addition, H9c2 cells or primary mouse cardiomyocytes were treated with the indicated doses of PBA, diazoxide as positive control, DMSO only as control, then cultured with or without OGD/R treatment. At the end of the experiments, MTT was added into each well at the concentration of 0.5 mg/ml, and incubated at 37 °C for 4 h. […] And the solution was measured at the absorbance of 490 nm by a spectrophotometer (Thermo Fisher Scientific, MA, USA). […]

OGD/R-induced H9c2 cells = assay: OGD/R-induced injury, MTT viability, H9c2; type: cell-based, rat; conditions: H9c2, 10 and 30 μM, OGD 6 h, reperfusion 18 h
Method: For OGD/R treatment, H9c2 cells were washed twice with phosphate buffered saline (PBS). The medium was changed to glucose and serum free DMEM, and H9c2 cells were incubated in an incubator with 95% N2 and 5% CO2 at 37 °C. After 6 h, the medium was replaced with DMEM containing 10% FBS and 1% PS. Then H9c2 cells were returned to a normal incubator with 5% CO2 balanced with air at 37 °C for the indicated time.
Cell viability was determined by MTT assays. PBA was prepared to a stock solution dissolved in dimethyl sulfoxide (DMSO). RAW264.7, H9c2 cells, primary mouse cardiomyocytes were treated with different doses of PBA, and DMSO only as control for 48 h for the toxicity. In addition, H9c2 cells or primary mouse cardiomyocytes were treated with the indicated doses of PBA, diazoxide as positive control, DMSO only as control, then cultured with or without OGD/R treatment. At the end of the experiments, MTT was added into each well at the concentration of 0.5 mg/ml, and incubated at 37 °C for 4 h. After removal of the supernatant, 150 μL of DMSO was added to solubilize the formazan products. And the solution was measured at the absorbance of 490 nm by a spectrophotometer (Thermo Fisher Scientific, MA, USA). The results of the MTT assay in all groups were normalized to the control group with DMSO only treatment.

C=C(COC(=O)C=Cc1ccc(O)c(O)c1)C(O)COC1OC(CO)C(O)C(O)C1O (centres unmarked) [PBA, pubescenoside A]
OGD/R-induced ROS (ROS in H9c2 cells): significantly suppress | disruption of Keap1 and Cul3 interaction in mutant cells ([1]; Cys77S and Cys434-Keap1 mutant cells): blocked | interaction of Keap1 and Cul3 (Co-IP) ([1]; WT-Keap1 293T cells, 30 μM PBA 12 h): could disrupt | cell toxicity (MTT) [2]: did not exhibit any cell toxicity | protection against OGD/R induced injury (cell viability, MTT) (OGD/R-induced H9c2 cells): protected
